The text below walks through data of PubChem BioAssay AID743491 (The Scripps Research Institute Molecular Screening Center, 2014).

Activity calls are given as the source filed them. No rule for the calls is given here.

Trace amine-associated receptor 1 (Homo sapiens), sequence (Q96RJ0 whole entry, looked up): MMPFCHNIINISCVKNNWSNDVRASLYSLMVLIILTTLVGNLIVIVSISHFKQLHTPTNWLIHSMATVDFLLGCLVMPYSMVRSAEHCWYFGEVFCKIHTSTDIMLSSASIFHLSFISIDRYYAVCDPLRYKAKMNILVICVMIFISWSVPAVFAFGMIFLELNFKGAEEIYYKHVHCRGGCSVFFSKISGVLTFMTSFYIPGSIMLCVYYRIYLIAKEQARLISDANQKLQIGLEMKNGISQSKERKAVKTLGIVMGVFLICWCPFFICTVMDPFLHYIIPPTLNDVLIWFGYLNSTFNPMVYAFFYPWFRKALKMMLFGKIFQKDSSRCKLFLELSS

The experiment has as its target Trace amine-associated receptor 1 (Homo sapiens) (UniProt Q96RJ0). In words: activators of human TAAR1 signalling – cell-based, fluorescence, MedChem round 1, dose response (AID 743491). The note with it: cells expressing human TAAR1, fluorescence agonist read-out.
On to `O=C(CCN1CCC(O)(c2ccccc2)C1)c1ccc2c(c1)OCCO2` (stereo unspecified), for which the EC50 was > 29900 nM (inactive).

For `CC1CN(CCC(=O)c2ccc3c(c2)OCCO3)CC1c1ccccc1` (stereo unspecified), the concentration giving a half-maximal response (EC50) was 378 nM.

As to `NC(=O)CCN1C[C@H](c2ccccc2)[C@@H]2[C@H]1C1CCN2CC1`, the EC50 is > 29900 nM (inactive).

On to `Cc1ccc(C(=O)CCN2CCC(c3ccccc3)C2)cc1` (stereo unspecified), for which the EC50 was 114 nM.

Consider `O=C(CCN1CCC(O)(c2ccc(F)cc2)C1)c1ccc2c(c1)OCCO2` (stereo unspecified), for which the EC50 is > 29900 nM (inactive).

Consider `O=C(CCN1C[C@@H](C(=O)O)[C@H](c2ccccc2)C1)NC1CCCC1`, for which the EC50 was > 29900 nM (inactive).

In the case of `O=C(CCN1C[C@@H](C(=O)O)[C@H](c2cccc(F)c2)C1)NC1CC1`, the EC50 is > 29900 nM (inactive).

Consider `CC(CN1CCCC1Cc1ccccc1)C(=O)c1ccc2c(c1)OCCO2` (stereo unspecified), for which the EC50 was 678 nM.

As to `O=C(CCN1CCC(c2ccccc2)C1)c1ccccc1` (stereo unspecified), the half-maximal effective concentration (EC50) is 174 nM.

Take `CC(CN1CCC(c2ccccc2)C1)C(=O)c1ccc2c(c1)OCCO2` (stereo unspecified): the EC50 result was “inactive”.

`O=C(CCN1C[C@@H](C(=O)O)[C@H](c2ccccc2)C1)NCc1cccs1`: the EC50 was > 29900 nM (inactive).

By EC50 is commonly meant the concentration giving half of the maximal effect.
